Entries after “also recorded” stand apart in the source; their conditions may differ. Where two headings read alike, the source gives them in different places.
What was measured:
[1] = tested on: EMT markers (mesenchymal markers, ECM) in RPE cells (ARPE-19); experiment: Change in expression of EMT markers (real-time PCR) in EMT-induced RPE cells; type: cell-based, human; settings: for Expression of EMT markers at the time of EMT induction (FIG. 8 to FIG. 12): flufenamic acid aluminum 28 μM, mefenamic acid 39 μm, sulindac 100 μM, tiaprofenic acid 1000 μM, seratrodast 31 μM; for Enhancement of expression of Fibronectin, Snail and vimentin (mesenchymal markers) / EMT suppression (FIG. 3 to FIG. 7) / Expression of EMT markers other than the ten common markers / Expression of Snail, Slug, CDH3, MMP1, MMP7, COL5A3, COL6A3, LAMC2, HMMR, TNC: EMT-induced ARPE-19, 48 hours; for Enhancement of expression of Fibronectin, Snail and vimentin (mesenchymal markers): compound at Cmax, ½ of Cmax or ¼ of Cmax; for EMT suppression (FIG. 3 to FIG. 7) / Expression of EMT markers other than the ten common markers / Expression of Snail, Slug, CDH3, MMP1, MMP7, COL5A3, COL6A3, LAMC2, HMMR, TNC: oxaprozin 300 μM, epalrestat 30 μM, zafirlukast 3 μM, amlexanox 30 μM, zaltoprofen 30 μM
Procedure: RPE cells (ARPE-19) were seeded on a plate, and incubated for 5 days at 37° C. For the RPE cells, EMT was induced in the conditions described in Test example 1-1, and respective compounds (oxaprozin, epalrestat, zafirlukast, amlexanox, zaltoprofen) were added simultaneously, and the cells were collected after 48 hours from induction of EMT. As a control, a sample to which a compound to be assessed (test drug) is not added was used. The collected cells were washed with PBS, and 350 μL of an RLT buffer was added to prepare a lysate for RNA extraction. The respective compounds were used in the following concentrations. Oxaprozin: 300 μM, epalrestat: 30 μM, zafirlukast: 3 μM, amlexanox: 30 μM, zaltoprofen: 30 μM. Total RNA was extracted from the lysate using an RNeasy Micro kit (QIAGEN, #74004), and from 2 μg of the obtained RNA, cDNA was prepared using a SuperScript III First-Strand Synthesis SuperMix for qRT-PCR (Invitrogen, #11752-250). Using 50 ng of the obtained cDNA as a template, a real-time PCR (ABI Prism 7500 Sequence Detection System) was conducted according to the manufacturer's protocol, and expression of mRNA of each gene was quantified. Specific primers for respective genes were purchased from Invitrogen. Ct (Threshold Cycle) value of each gene was calculated as a percentage to a non-treated sample after normalization by endogenous control.
Five compounds (flufenamic acid aluminum (addition concentration: 28 μM (Cmax)), mefenamic acid (addition concentration: 39 μm (Cmax)), sulindac (addition concentration: 100 μM), tiaprofenic acid (addition concentration: 1000 μM), and seratrodast (addition concentration: 31 μM (Cmax))) were assessed for change in expression of EMT markers in the same manner as in Test example 2-1. The results are shown in FIG. 8 to FIG. 12, respectively.
(§1) RPE cells (ARPE-19) were seeded on a plate, and incubated for 5 days at 37° C. […] Each compound was added in a concentration of Cmax, ½ of Cmax or ¼ of Cmax. As a control, a sample to which a compound to be assessed (test drug) is not added was used. The collected cells were washed with PBS, and 350 μL of an RLT buffer was added to prepare a lysate for RNA extraction. Total RNA was extracted from the lysate using an RNeasy Micro kit (QIAGEN, #74004), and from 2 μg of the obtained RNA, cDNA was prepared using a SuperScript III First-Strand Synthesis SuperMix for qRT-PCR (Invitrogen, #11752-250). Using 50 ng of the obtained cDNA as a template, a real-time PCR (ABI Prism 7500 Sequence Detection System) was conducted according to the manufacturer's protocol, and expression of mRNA of each gene was quantified. Specific primers for respective genes were purchased from Invitrogen. Ct (Threshold Cycle) value of each gene was calculated as a percentage to a non-treated sample after normalization by endogenous control. For each result, a significant test (Student t test) was conducted, and when p<0.05, the result was marked with “*”, and when p<0.01, the result was marked with “**”.
RPE cells (ARPE-19) were seeded on a plate, and incubated for 5 days at 37° C. For the RPE cells, EMT was induced in the conditions described in Test example 5-1, and the five representative compounds (oxaprozin, epalrestat, zafirlukast, amlexanox, zaltoprofen) were added simultaneously, and the cells were collected after 48 hours from induction of EMT. As a control, a sample to which a compound to be assessed (test drug) is not added was used. The collected cells were washed with PBS, and 350 μL of an RLT buffer was added to prepare a lysate for RNA extraction. Total RNA was extracted from the lysate using an RNeasy Micro kit (QIAGEN, # 74004), and from 2 μg of the obtained RNA, cDNA was prepared using a SuperScript III First-Strand Synthesis SuperMix for qRT-PCR (Invitrogen, # 11752-250). […]

RPE cells (ARPE-19) = experiment: Focus (drusen-like structure) formation suppression in EMT induction model of RPE cells; type: cell-based, human; settings: for IC50: Homo sapiens; for Suppression of drusen-like structure formed in the RPE cell model: FIG. 35 to 39
Procedure: RPE cells (ARPE-19) were seeded on a plate, and incubated for 5 days at 37° C. […] As a control of EMT induction, a sample to which a compound to be assessed (test drug) is not added was used. After 48 hours from EMT induction, the cells were fixed by treating with a 4% paraformaldehyde solution for 30 minutes at room temperature, and then washed three times with PBS. The cells were treated with a 0.2% Triton-X/PBS solution for 5 minutes, and washed three times with PBS. […] The fluorescent-stained cells were imaged by using an Image Express Micro (available from Molecular Devices), and digitized by using a MetaXpress2.0 (available from Molecular Devices). By analyzing the degree of formation of Focus (Focus level) from the numerical data, a Focus formation suppressing rate was calculated according to the following Formula 1 on the basis of the numerical value at the time of no addition of a compound, and the EMT suppressive effect in each compound was verified. The degree of formation of Focus (Focus level) was determined according to the number and the volume of Focus as indexes.
IC50 in the table was calculated using the following Formula 2.
A: Higher concentration sandwiching 50%
B: Lower concentration sandwiching 50%
C: Inhibition rate at lower concentration sandwiching 50%
D: Inhibition rate at higher concentration sandwiching 50%
RPE cells (ARPE-19) were seeded on a plate, and incubated for 5 days at 37° C. […] As a control of EMT induction, a sample to which a compound to be assessed (test drug) is not added was used. The cells after observation were fixed by treating with a 4% paraformaldehyde solution for 30 minutes at room temperature, and then washed three times with PBS. The cells were treated with a 0.2% Triton-X/PBS solution for 5 minutes, and washed three times with PBS. […] The fluorescent-stained cells were imaged by using an Image Express Micro (available from Molecular Devices), and digitized by using a MetaXpress2.0 (available from Molecular Devices). By analyzing the degree of formation of Focus from the numerical data, a Focus formation suppressing rate was calculated on the basis of the case without addition of a compound and the case without EMT induction, and the EMT suppressive effect in each compound was verified. […] After washing three times with methanol, the cells were dried for 3 hours at room temperature. The dried cells were observed under a microscope.

[2] = cited from earlier work
VEGF = experiment: Change in expression of VEGF mRNA (real-time PCR) in EMT-induced RPE cells; type: cell-based, human; settings: EMT-induced ARPE-19, 48 hours, compound at Cmax, ½ of Cmax or ¼ of Cmax
Procedure: as §1
The results are shown in FIG. 16 or FIG. 17, respectively.
The VEGF suppressive effect was assessed using the cell model as described above in the same manner as in Test example 2-3. The results are shown in FIG. 18 to FIG. 20, respectively.

[3] = RPE, Table 2, same manner as Test example 6-1, read-out: IC50 (Focus formation suppressing rate, EMT suppressive effect)
[4] = Pharmaceutical Interview Form, single-dose administration, read-out: Cmax
[5] = Table 1, EMT-induced ARPE-19, compound added simultaneously, 48 hours, read-out: IC50 (Focus formation suppressing rate, EMT suppressive effect)
[6] = Test example 7, EMT-induced ARPE-19, 48 hours, read-out: IC50 values in the drusen-like structure suppressing tests
[7] = Table 3, from the interview form and the package insert of each drug, read-out: Cmax
[8] = quoted in Test examples 2-3, 2-4, 2-5, read-out: Cmax (as quoted in the VEGF test examples)

| SMILES | Expression of EMT markers at the time of EMT induction (FIG. 8 to FIG. 12) [1] | IC50 (RPE cells (ARPE-19); [3]) | Cmax [2, 4] | IC50 (RPE cells (ARPE-19); [5]) | Cmax [2, 8] | Enhancement of expression of Fibronectin, Snail and vimentin (mesenchymal markers) [1] | Enhancement of VEGF mRNA expression by EMT induction (VEGF) | other results |
| --- | --- | --- | --- | --- | --- | --- | --- | --- |
| CC1=C(CC(=O)O)c2cc(F)ccc2/C1=C\c1ccc([S+](C)[O-])cc1 (centres unmarked) [Sulindac, sulindac] | significantly suppress expression of EMT markers at the time of EMT induction; also recorded: lower expression of EMT markers at the time of EMT induction | 35.3 µM | 10.1 µM |  |  |  |  |  |
| CC(/C=C1\SC(=S)N(CC(=O)O)C1=O)=C\c1ccccc1 [Epalrestat, epalrestat] |  |  | 12.2 µM | 16.9 µM | 12.2 µM |  |  | IC50 (RPE cells (ARPE-19); [6]): 16.9 µM; Cmax [2, 7]: 12.2 µM |
| CC(C(=O)O)c1ccc(-c2ccccc2)c(F)c1 (centres unmarked) [Flurbiprofen, flurbiprofen] |  |  |  | 32.6 µM |  |  |  |  |
| O=C(Nc1cccc2c(=O)cc(-c3nnn[nH]3)oc12)c1ccc(OCCCCc2ccccc2)cc1 [Pranlukast, pranlukast] |  |  |  | 1.1 µM |  |  |  |  |
| Cc1cccc(Nc2ccccc2C(=O)O)c1C [Mefenamic acid, mefenamic acid] | significantly suppress expression of EMT markers at the time of EMT induction; also recorded: lower expression of EMT markers at the time of EMT induction | 12.4 µM | 38.5 µM |  | 38.5 µM | suppressed enhancement of expression of these in a concentration dependent manner | suppressed enhancement of VEGF expression in a concentration dependent manner | Enhancement of VEGF mRNA expression by EMT induction (VEGF; listed as mefenamic acid): suppress enhancement of mRNA expression of VEGF |
| CC1=C(C)C(=O)C(C(CCCCCC(=O)O)c2ccccc2)=C(C)C1=O (centres unmarked) [Seratrodast, seratrodast] |  | 54.6 µM | 31 µM |  | 31 µM |  |  |  |
| COc1cc(C(=O)NS(=O)(=O)c2ccccc2C)ccc1Cc1cn(C)c2ccc(NC(=O)OC3CCCC3)cc12 [Zafirlukast, zafirlukast] |  |  | 0.8 µM | 3.8 µM |  |  |  | EMT suppression (FIG. 3 to FIG. 7) [1]: significantly suppress EMT; Expression of EMT markers other than the ten common markers [1]: decrease in expression was observed in MMP3, COL13A1, LAMB3, or CSPG4; Expression of Snail, Slug, CDH3, MMP1, MMP7, COL5A3, COL6A3, LAMC2, HMMR, TNC [1]: suppressed expression; Suppression of drusen-like structure formed in the RPE cell model (RPE cells (ARPE-19); EMT-induced ARPE-19, 48 hours): suppresses a drusen-like structure formed in the RPE cell model in a concentration-dependent manner; IC50 (RPE cells (ARPE-19); [6]): 3.8 µM; Cmax [2, 7]: 0.8 µM |
| CCc1cccc2c3c([nH]c12)C(CC)(CC(=O)O)OCC3 (centres unmarked) [Etodolac, etodolac] |  |  |  |  | 42.5 µM | did not suppress enhancement of expression of these | did not suppress enhancement of VEGF expression |  |
| COc1ccc2c(c1)c(CC(=O)O)c(C)n2C(=O)c1ccc(Cl)cc1 [indomethacin] |  |  |  |  | 2.79 µM | did not suppress enhancement of expression of these | did not suppress enhancement of VEGF expression |  |
| CC(C)Cc1ccc(C(C)C(=O)O)cc1 (centres unmarked) [Ibuprofen, ibuprofen] |  |  |  | 18 µM |  |  |  |  |
| CC(C(=O)O)c1ccc(C(=O)c2ccccc2)s1 (centres unmarked) [Tiaprofenic acid, tiaprofenic acid] | significantly suppress expression of EMT markers at the time of EMT induction; also recorded: lower expression of EMT markers at the time of EMT induction | 374 µM | 69.2 µM |  |  |  |  |  |
| CC(C)c1ccc2oc3nc(N)c(C(=O)O)cc3c(=O)c2c1 [Amlexanox, amlexanox] |  |  | 16 µM | 32.5 µM |  |  |  | EMT suppression (FIG. 3 to FIG. 7) [1]: significantly suppress EMT; Expression of EMT markers other than the ten common markers [1]: decrease in expression was observed in ZEB2, CDH2, MMP3, COL1A1, and COL13A1; Expression of Snail, Slug, CDH3, MMP1, MMP7, COL5A3, COL6A3, LAMC2, HMMR, TNC [1]: suppressed expression; Suppression of drusen-like structure formed in the RPE cell model (RPE cells (ARPE-19); EMT-induced ARPE-19, 48 hours): suppresses a drusen-like structure formed in the RPE cell model in a concentration-dependent manner; IC50 (RPE cells (ARPE-19); [6]): 32.5 µM; Cmax [2, 7]: 16 µM |
| O=C(O)c1ccccc1Nc1cccc(C(F)(F)F)c1 [flufenamic acid aluminum] | significantly suppress expression of EMT markers at the time of EMT induction; also recorded: lower expression of EMT markers at the time of EMT induction | 4.4 µM | 27.9 µM |  | 27.9 µM | suppressed enhancement of expression of these in a concentration dependent manner | suppress enhancement of mRNA expression of VEGF | Enhancement of VEGF mRNA expression by EMT induction (VEGF; listed as Flufenamic acid aluminum): suppressed enhancement of VEGF expression in a concentration dependent manner |
